Data as given in patent publication US5622948A, “Pyrrole pyridazine and pyridazinone anti-inflammatory agents” (Syntex (U.S.A.) Inc., priority 1994, dated 1997).
Several values for one entry are separate records, joined by “and”; a condition that tells them apart may be missing. Equal values may be shown once.

Target: T1, COX I (Rattus norvegicus, UniProt Q63921)
T1 construct: Rat whole blood; from tissue; host or cells: rat whole blood
T1 sequence (Q63921 27-602): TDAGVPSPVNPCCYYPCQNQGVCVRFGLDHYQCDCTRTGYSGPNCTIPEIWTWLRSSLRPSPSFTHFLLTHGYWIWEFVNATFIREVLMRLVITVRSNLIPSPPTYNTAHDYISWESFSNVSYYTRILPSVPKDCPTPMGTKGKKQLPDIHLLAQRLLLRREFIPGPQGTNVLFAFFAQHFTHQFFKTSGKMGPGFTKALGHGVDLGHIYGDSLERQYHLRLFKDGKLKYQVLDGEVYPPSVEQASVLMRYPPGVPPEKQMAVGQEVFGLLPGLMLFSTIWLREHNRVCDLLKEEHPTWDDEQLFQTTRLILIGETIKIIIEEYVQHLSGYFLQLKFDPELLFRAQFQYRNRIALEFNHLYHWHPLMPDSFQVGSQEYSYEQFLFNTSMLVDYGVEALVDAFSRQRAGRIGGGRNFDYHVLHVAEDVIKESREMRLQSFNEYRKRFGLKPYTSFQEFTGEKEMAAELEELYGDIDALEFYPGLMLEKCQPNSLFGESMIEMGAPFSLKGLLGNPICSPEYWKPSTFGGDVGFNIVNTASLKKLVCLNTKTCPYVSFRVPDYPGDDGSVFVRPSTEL
Test: TxB2 production in rat whole blood activated with A23187
Type: cell-based
Settings: 15 min incubation; 30 min activation with A23187; EIA determination of TxB2; read-out: COX I IC50, inhibition of TxB2 production
Protocol: A summary of activities of Compound (16) against COX I and COX II in cell-free enzyme preparations and whole cells is presented in Table 1. The following abbreviations are used: AA is arachidonic acid, IL-1 is interleukin 1, PMA is phorbol myristate acetate, A23187 is a calcium ionophore (Sigma), BSA is bovine serum albumin and LPS is a lipopolysaccharide (Sigma).
Rat whole blood 15 min incubation with Compound (16)
EIA determination of TxB2

Compound: Cc1cc(Cc2ccc(=O)[nH]n2)n(C)c1C(=O)c1ccc(Cl)cc1 [Compound 16, 6-[1,4-dimethyl-5-(4chloro-benzoyl)-1H-pyrrol-2-ylmethyl]-2H-pyridazin-3-one]
- IC50: 6 µM and 5 µM and 4 µM
